This is an account of results in patent US9120780B2, “Indole or indazole derivative or salt thereof” (TAIHO PHARMACEUTICAL CO., LTD., priority 2011, dated 2015).

Test [1] relates to Human gastric cancer cells (NCI-N87). In words: Antitumor effect in subcutaneous transplantation model of human gastric cancer cell line NCI-N87. Format: in vivo, nude mice. Particulars: for anti-tumor effect versus comparative compounds 6 and 7 at the same dose (RTV on day 15): 2 mg/kg/day oral for all compounds, Student-t test; for inhibition of tumor growth (relative tumor volume, FIG. 1): 2 mg/kg/day orally once per day for 14 days, nude mice, NCI-N87; for anti-tumor effect versus comparative compounds 6 and 7 at increased dose (RTV): Examples at 2 mg/kg/day oral, comparative compounds 6 and 7 at 10 mg/kg/day. The protocol:
Human gastric cancer cells (NCI-N87) (obtained from ATCC) were subcutaneously transplanted in nude mice, and at the time when the tumor volume of the nude mice in which the cancer cells had been survived became approximately 140 to 210 mm^3, stratified randomization was performed so that the average tumor volume of each group (6 animals were assigned to one group (grouping: on day 0)) became uniform. The compounds 1, 6, and 9 of the present invention and the comparative compounds 6 (the compound of Example 21 in WO 2010/106290) and 7 (the compound of Example 1 in WO 2010/106290) were orally administered daily once per day from day 1 for 14 days. Note that the comparative compounds were synthesized according to the method described in WO 2010/106290 (Table 22).
The doses of 2 mg/kg/day and 10 mg/kg/day were used for the comparative compounds 6 and 7, and the dose of 2 mg/kg/day was used for the compounds of Examples of 1, 6, and 9 of the present invention.
In order to compare the transition over time of the tumor growth in the administration of each test compound, the relative tumor volume (RTV) was calculated according to the following equation when the tumor volume on the grouping day was defined as 1 for the growth rate of tumor, and the transition of the average value of the RTV of each individual was shown in FIG. 1. RTV=(Tumor volume on tumor volume measurement day)/(Tumor volume when grouped) (Mathematical Formula 1)

The test system of test [2] is SK-BR-3 cells. As to the kind of experiment: Measurement of cell growth inhibition (crystal violet staining). Type of test: cell-based. Particulars: Homo sapiens, 72 hours culture with test substance. The protocol: Cell growth was measured by a crystal violet staining method. […] The cells were cultured in a 5% CO2 incubator at 37° C. for 24 hours, and then test substances were added to the plate, followed by culturing for further 72 hours. […] The plate was left to stand at room temperature for 20 minutes for staining the cells. The plate was washed with water and dried, and 100 μL of a mixed solution of 0.05 M NaH2PO4 and ethanol (mixture in equal amounts) was added to each well. The absorbance at 540 nm was measured with a microplate reader (MTP-450, Corona Electric Co., Ltd.) as an index of the number of cells in each well. The inhibition rate (%) of cell growth by a compound of the present invention was determined by the following equation using the absorbance of a drug-untreated group (control) as a control. […] Inhibition rate (%)=(C−T)/C×100 T: absorbance in a well to which a test substance was added C: absorbance in a well to which no test substance was added

The target of test [3] is human HSP90 alpha protein (N-terminal, amino acids 2-236) (Homo sapiens (Human), UniProt P07900). In words: Measurement of HSP90-binding activity (AlphaScreen competitive assay, biotin-labeled geldanamycin). Particulars: inhibition of biotin-labeled geldanamycin binding to purified HSP90; read-out: HSP-binding activity IC50. The protocol:
First, a solution of purified HSP90 was prepared as follows. […] The pET-HSP90N was introduced into Escherichia coli cells (BL21 (DE3), Stratagene Inc.), and then the Escherichia coli cells were cultured in the presence of 0.5 mM isopropyl-beta-D-thiogalactopyranoside (Sigma-Aldrich Corp.) at 37° C. for 4 hours. The Escherichia coli cells were collected, suspended in a lysis buffer (50 mM Tris-HCl (pH 7.5), 200 mM NaCl), and sonicated. The sonicated cell solution was centrifuged (40,000×g, 20 minutes) to obtain supernatant as a crude extract. The crude extract was fractionated by Ni Sepharose High Performance (GE Healthcare Japan Corporation) chromatography and HiLoad 26/60 Superdex 75 pg (GE Healthcare Japan Corporation), and the fraction in which HSP90 protein was concentrated was prepared so as to be a 50 mM Tris-HCl (pH 7.5)/20% glycerol solution as a purified HSP90 solution. The purified HSP90 solution was divided and stored at −80° C. until use.
The HSP90-binding activity was measured by an AlphaScreen competitive assay system. […] After reaction at room temperature for 2 hours, biotin-labeled geldanamycin was added to each reaction solution in an amount of 40 nM, followed by reaction for further 1 hour. […] After reaction in a dark place at room temperature for 1 hour, the fluorescence intensity in each well was measured with a multilabel plate reader, EnVision (Perkin Elmer, Inc.). The inhibition rate (%) of biotin-labeled geldanamycin binding by a compound of the present invention was determined by the following equation using the fluorescence signal of a test substance-free group (control) as a control. […] Inhibition rate (%)=(C−T)/C×100 T: signal in a well to which a test substance was added C: signal in a well to which no test substance was added
In general terms: Bead proximity is the source of the signal in Alpha formats.

Usually IC50 stands for the concentration that gives 50% inhibition. Regarding `CC(C)c1nn(-c2ccc(C(N)=O)c(NC(C)(C)C)c2)c2cccc(-n3cnc(-c4cccnc4)c3)c12` [Example 1, 2-(Tert-butylamino)-4-(3-isopropyl-4-(4-(pyridin-3-yl)-1H-imidazol-1-yl)-1H-indazol-1-yl)benzamide], in test [1], the “anti-tumor effect versus comparative compounds 6 and 7 at the same dose (RTV on day 15)” value was “significantly stronger anti-tumor effects than the comparative compounds 6 and 7”; the “inhibition of tumor growth (relative tumor volume, FIG. 1)” value is “inhibited the tumor growth within one week from the start of the administration”; the “anti-tumor effect versus comparative compounds 6 and 7 at increased dose (RTV)” value was “significantly stronger anti-tumor effect than any of the comparative compounds 6 and 7”. The molecule further registered an IC50 in test [2] of 20 nM. In addition, in test [3], the IC50 came out at 170 nM.

As for `CCc1cc(C(N)=O)ccc1-n1nc(C(C)C)c2c(-n3cnc(-c4cnn(C)c4)c3)cccc21` [Example 6, 3-Ethyl-4-(3-isopropyl-4-(4-(1-methyl-1H-pyrazol-4-yl)-1H-imidazol-1-yl)-1H-indazol-1-yl)benzamide], in test [1], the “anti-tumor effect versus comparative compounds 6 and 7 at the same dose (RTV on day 15)” value was “significantly stronger anti-tumor effects than the comparative compounds 6 and 7”; the “inhibition of tumor growth (relative tumor volume, FIG. 1)” value was “inhibited the tumor growth within one week from the start of the administration”; the “anti-tumor effect versus comparative compounds 6 and 7 at increased dose (RTV)” value is “significantly stronger anti-tumor effect than any of the comparative compounds 6 and 7”. The concentration for half-maximal inhibition (IC50) in test [2] is 30 nM. Besides, the IC50 in test [3] came to 100 nM.

With `CC(C)c1nn(-c2ccc(C(N)=O)c(NC(C)(C)C)c2)c2cccc(-n3cnc(-c4cnn(C)c4)c3)c12` [Example 9, 2-(Tert-butylamino)-4-(3-isopropyl-4-(4-(1-methyl-1H-pyrazol-4-yl)-1H-imidazol-1-yl)-1H-indazol-1-yl)benzamide], in test [1], the “anti-tumor effect versus comparative compounds 6 and 7 at the same dose (RTV on day 15)” value is “significantly stronger anti-tumor effects than the comparative compounds 6 and 7”; the “inhibition of tumor growth (relative tumor volume, FIG. 1)” value is listed as “inhibited the tumor growth within one week from the start of the administration”; the “anti-tumor effect versus comparative compounds 6 and 7 at increased dose (RTV)” value was “significantly stronger anti-tumor effect than any of the comparative compounds 6 and 7”. This molecule came in with an IC50 in test [2] of 10 nM. The IC50 in test [3] is 260 nM.

Regarding `Cc1cn(-c2ccc(C(N)=O)c(NC(C)(C)C)c2)c2cccc(-n3cnc(-c4cnn(C)c4)c3)c12` [Example 46, 2-(Tert-butylamino)-4-{3-methyl-4-(4-(1-methyl-1H-pyrazolo-4-yl)-1H-imidazolo-1-yl)-1H-indol-1-yl}benzamide], the IC50 in test [2] is 50 nM; in test [3] it was 190 nM.

For `Cc1cn(-c2ccc(C(N)=O)c(NC(C)(C)C)c2)c2cccc(-n3cnc(-c4cccnc4)c3)c12` [Example 47, 2-(Tert-butylamino)-4-{3-methyl-4-(4-(pyridin-3-yl)-1H-imidazolo-1-yl)-1H-indol-1-yl}benzamide], the IC50 in test [2] was 120 nM; in test [3] it was 430 nM.

Consider `CCc1cn(-c2ccc(C(N)=O)c(NC(C)(C)C)c2)c2cccc(-n3cnc(-c4cnn(C)c4)c3)c12` [Example 48, 2-(Tert-butylamino)-4-{3-ethyl-4-(4-(1-methyl-1H-pyrazolo-4-yl)-1H-imidazolo-1-yl)-1H-indol-1-yl}benzamide], for which the IC50 in test [2] came out at 10 nM; in test [3] it was 260 nM.

As to `CCCc1cn(-c2ccc(C(N)=O)cc2CC)c2cccc(-n3cnc(-c4cnn(C)c4)c3)c12` [Example 49, 3-Ethyl-4-{4-(4-(1-methyl-1H-pyrazolo-4-yl)-3-propyl-1H-imidazolo-1-yl)-1H-indol-1-yl}benzamide], the IC50 in test [2] amounted to 30 nM; in test [3], 120 nM.

Take `CCc1cc(C(N)=O)ccc1-n1cc(C(C)C)c2c(-n3cnc(-c4cnn(C)c4)c3)cccc21` [Example 51, 3-Ethyl-4-{3-isopropyl-4-(4-(1-methyl-1H-pyrazolo-4-yl)-1H-imidazolo-1-yl)-1H-indol-1-yl}benzamide]: the IC50 is 60 nM in test [2] and 160 nM in test [3].

For the molecule `CC(C)c1cn(-c2ccc(C(N)=O)c(NC(C)(C)C)c2)c2cccc(-n3cnc(-c4cnn(C)c4)c3)c12` [Example 52, 2-(Tert-butylamino)-4-{3-isopropyl-4-(4-(1-methyl-1H-pyrazolo-4-yl)-1H-imidazolo-1-yl)-1H-indol-1-yl}benzamide], the concentration for half-maximal inhibition (IC50) in test [2] is 20 nM; in test [3], 420 nM.
